Reference: ChEMBL document CHEMBL1125759, “A new ionizable chromophore of 1,4-bis(alkylamino)benzo[g]phthalazine which interacts with DNA by intercalation” (J Med Chem, 1991)
Converted amounts (≈) assume the structure as drawn.

How the values were obtained:
[1] = Compound was evaluated for the protonation constant by binding to DNA by intercalation in calf thymus.; format: ADME, Bos taurus; details: cattle
HeLa = test: In vitro effective dose for its cytostatic activity against HeLa cells.; format: functional; details: Homo sapiens, read-out: ED50 (the source's name)

pKa [1] | EC50 (HeLa) | Compound
8.3 | 25 µg/mL (≈ 76.6 µM) | OCCCNc1nnc(NCCCO)c2cc3ccccc3cc12
6.2 | 1.25 µg/mL (≈ 3.28 µM) | CN(C)CCCNc1nnc(NCCCN(C)C)c2cc3ccccc3cc12
8.3 | 10 µg/mL (≈ 28.2 µM) | COCCCNc1nnc(NCCCOC)c2cc3ccccc3cc12
7.4 | – | COc1cc(NS(C)(=O)=O)ccc1Nc1c2ccccc2nc2ccccc12 [AMSACRINE]
